# From patent US20020015942A1, “Method for cancer screening” (priority 1996, published 2002)
# Key:
# A10 cells [1] = assay: Frequency of endoapoptotic bodies after incubation with cytochalasin B; type: cell-based, Rat; conditions: 48 h, 2 μg/ml in culture medium
# A10 cells [2] = test system: A10 cells
# Method: A10 cells were stained with acridine orange at different times after exposure to hydrogen peroxide (0.2 mM) and at least 500 cells were scored at each time interval to obtain the above graph. Lines 1-4 represent the frequency of apoptotic nuclei having characteristic fluorescence patterns.
# Acridine orange and DAPI staining: Cells grown on glass coverslips were stained for 3-4 minutes in 100 μg/ml acridine orange (Sigma Chemicals Ltd) dissolved in HBSS; coverslips were rinsed briefly in HBSS and mounted in HBSS [19]. Cells were examined immediately in a Zeiss Axioskop fluorescence microscope equipped with filter #9 and epi-illumination. Double stranded DNA fluoresces green while single-stranded RNA and DNA fluoresce red after staining with acridine orange. In most of the experiments, endoapoptosis was scored by the presence of the endoapoptotic nuclei (mini cells) in very early (bright green fluorescence), mid phase (red fluorescence), late phase (no specific fluorescence) or the presence of a ‘ghost’ with no nuclear matrix, with or without fragmentation of the mini cells.
# A10 cells [3] = conditions: hydrogen peroxide-induced apoptotic cells
# Method: Electron microscopy: For studying endoapoptosis in transformed foci, NIH3T3 cells were grown on Thermanox plastic coverslips and the cells were processed as monolayer by fixation with 2% glutaraldehyde in 0.1 M cacodylate buffer, pH 7.3, overnight at 5° C., and post-fixed with 1% osmium tetroxide acid. Cells were in block stained overnight in 0.5% aqueous uranyl acetate, dehydrated in acetone and embedded in Epon resin. Thin sections were cut, stained with uranyl acetate and lead citrate and viewed in a Philips 300 electron microscope. In some cases the monolayer of cells were scraped with rubber policeman after fixation and pelleted and processed for sectioning as above.
# [4] = 0.02 mM hydrogen peroxide, acridine orange
SMILES,effect on frequency of endoapoptotic bodies (A10 cells [1]),"induction of classic apoptosis (A10 cells [2]; 0.02 mM hydrogen peroxide in the culture medium, followed over 24 hours)",persistence of red nuclear fluorescence (A10 cells [2]; [4]),time after apoptotic death until nuclei displayed red fluorescence (A10 cells [2]; [4]),"temporal changes in nuclear fluorescence pattern compared with 0.2 mM (A10 cells [2]; 0.1 mM hydrogen peroxide, acridine orange)",nuclear changes in transmission electron microscopy (A10 cells [3])
C=C1[C@@H](C)[C@H]2[C@H](Cc3ccccc3)NC(=O)[C@]23OC(=O)/C=C/[C@H](O)CCC[C@@H](C)C/C=C/[C@H]3[C@@H]1O [cytochalasin B],did not reduce the frequency of endoapoptotic bodies,–,–,–,–,–
OO [hydrogen peroxide],–,classic apoptosis was induced,3 to 6 h,2 to 3 h,induced similar changes with a 24 h delay,typical apoptotic changes in the nucleus such as chromatin marginization and condensation
